Experimental data reported in PubChem BioAssay (NCI).
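GI50: concentration for 50% inhibition of growth. The concentration for full growth arrest is given as TGI.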

How the values were obtained:
Test in all cases: growth of human tumour cells (NCI), 384-well format
U251 glioblastoma = test system: U251 glioblastoma
T-47D breast = test system: T-47D breast
UACC-62 melanoma = test system: UACC-62 melanoma
KM12 colon = test system: KM12 colon
DU-145 prostate = test system: DU-145 prostate
OVCAR-4 ovarian = test system: OVCAR-4 ovarian
SK-MEL-5 melanoma = test system: SK-MEL-5 melanoma
BT-549 breast = test system: BT-549 breast
MDA-MB-435 melanoma = test system: MDA-MB-435 melanoma
NCI-H460 NSCLC = test system: NCI-H460 NSCLC
MDA-MB-468 breast = test system: MDA-MB-468 breast
HCT-15 colon = test system: HCT-15 colon
SNB-75 CNS = test system: SNB-75 CNS
HT29 colon = test system: HT29 colon
NCI-H23 lung = test system: NCI-H23 lung
NCI-H226 lung = test system: NCI-H226 lung
OVCAR-8 ovarian = test system: OVCAR-8 ovarian
SK-MEL-28 melanoma = test system: SK-MEL-28 melanoma
HS 578T breast = test system: HS 578T breast
SF-268 CNS = test system: SF-268 CNS
A498 renal = test system: A498 renal
MCF7 breast = test system: MCF7 breast
HOP-62 NSCLC = test system: HOP-62 NSCLC
MOLT-4 leukemia = test system: MOLT-4 leukemia
CAKI-1 renal = test system: CAKI-1 renal
A549 NSCLC = test system: A549 NSCLC
RPMI-8226 leukemia = test system: RPMI-8226 leukemia
OVCAR-3 ovarian = test system: OVCAR-3 ovarian
IGROV1 ovarian = test system: IGROV1 ovarian
SF-295 CNS = test system: SF-295 CNS
SN12C renal = test system: SN12C renal
HCC-2998 colon = test system: HCC-2998 colon
HCT-116 colon = test system: HCT-116 colon
UACC-257 melanoma = test system: UACC-257 melanoma
HL-60(TB) leukemia = test system: HL-60(TB) leukemia
OVCAR-5 ovarian = test system: OVCAR-5 ovarian
HOP-92 NSCLC = test system: HOP-92 NSCLC
SNB-19 CNS = test system: SNB-19 CNS
RXF 393 renal = test system: RXF 393 renal
SW-620 colon = test system: SW-620 colon
PC-3 prostate = test system: PC-3 prostate
NCI-H522 lung = test system: NCI-H522 lung
786-0 renal = test system: 786-0 renal
MDA-MB-231 breast = test system: MDA-MB-231 breast
TK-10 renal = test system: TK-10 renal
SR leukemia = test system: SR leukemia
M14 melanoma = test system: M14 melanoma
LOX IMVI melanoma = test system: LOX IMVI melanoma
NCI-H322M lung = test system: NCI-H322M lung
SK-OV-3 ovarian = test system: SK-OV-3 ovarian
COLO 205 colon = test system: COLO 205 colon
ACHN renal = test system: ACHN renal
UO-31 renal = test system: UO-31 renal
MALME-3M melanoma = test system: MALME-3M melanoma
SF-539 CNS = test system: SF-539 CNS
NCI/ADR-RES ovarian = test system: NCI/ADR-RES ovarian
EKVX NSCLC = test system: EKVX NSCLC

Work on `C=C1C[C@@H]2[C@H](CC[C@]3(C)C(=O)CC[C@@H]23)[C@@]2(C)C=CC(=O)C=C12` yielded a GI50 (U251 glioblastoma) of 21.4 µM, a TGI (U251 glioblastoma) of 44.4 µM and a GI50 (T-47D breast) of 27.6 µM. The TGI (T-47D breast) was 98.6 µM, the GI50 (UACC-62 melanoma) was 21.9 µM and the TGI (UACC-62 melanoma) was greater than 100 µM. For the same compound, the GI50 (KM12 colon) was 28 µM, the TGI (KM12 colon) was 94.9 µM and the GI50 (DU-145 prostate) was 35.2 µM. For the same compound, the TGI (DU-145 prostate) was greater than 100 µM, the GI50 (OVCAR-4 ovarian) was 20.9 µM and the TGI (OVCAR-4 ovarian) was 40.2 µM. The GI50 (SK-MEL-5 melanoma) was 12.9 µM, the TGI (SK-MEL-5 melanoma) was 29.1 µM and the GI50 (BT-549 breast) was 14.9 µM. It also gave a TGI (BT-549 breast) of 31.1 µM, a GI50 (MDA-MB-435 melanoma) of 82.9 µM and a TGI (MDA-MB-435 melanoma) greater than 100 µM. For the same compound, the GI50 (NCI-H460 NSCLC) was 21.1 µM, the TGI (NCI-H460 NSCLC) was 40.6 µM and the GI50 (MDA-MB-468 breast) was 6.15 µM. For the same compound, the TGI (MDA-MB-468 breast) was 25.8 µM, the GI50 (HCT-15 colon) was 19 µM and the TGI (HCT-15 colon) was greater than 100 µM. It also gave a GI50 (SNB-75 CNS) of 25.9 µM, a TGI (SNB-75 CNS) of 74 µM and a GI50 (HT29 colon) of 23 µM. For the same compound, the TGI (HT29 colon) was 99.1 µM, the GI50 (NCI-H23 lung) was 17.9 µM and the TGI (NCI-H23 lung) was 36.2 µM. The GI50 (NCI-H226 lung) was 20.5 µM, the TGI (NCI-H226 lung) was 39.2 µM and the GI50 (OVCAR-8 ovarian) was 20.3 µM. It also gave a TGI (OVCAR-8 ovarian) of 47.2 µM, a GI50 (SK-MEL-28 melanoma) greater than 100 µM and a TGI (SK-MEL-28 melanoma) greater than 100 µM. The GI50 (HS 578T breast) was 12.3 µM, the TGI (HS 578T breast) was 27.2 µM and the GI50 (SF-268 CNS) was 27.4 µM. It also gave a TGI (SF-268 CNS) of 74.9 µM, a GI50 (A498 renal) of 23.3 µM and a TGI (A498 renal) of 47.8 µM. For the same compound, the GI50 (MCF7 breast) was 18.6 µM, the TGI (MCF7 breast) was 82.4 µM and the GI50 (HOP-62 NSCLC) was 23.1 µM. The TGI (HOP-62 NSCLC) was 56.2 µM, the GI50 (MOLT-4 leukemia) was 13.7 µM and the TGI (MOLT-4 leukemia) was 27 µM. It also gave a GI50 (CAKI-1 renal) of 27 µM, a TGI (CAKI-1 renal) of 70.7 µM and a GI50 (A549 NSCLC) of 30.1 µM. It also gave a TGI (A549 NSCLC) greater than 100 µM, a GI50 (RPMI-8226 leukemia) of 17.8 µM and a TGI (RPMI-8226 leukemia) of 32.2 µM. It also gave a GI50 (OVCAR-3 ovarian) of 14.8 µM, a TGI (OVCAR-3 ovarian) of 35.9 µM and a GI50 (IGROV1 ovarian) of 32.6 µM. For the same compound, the TGI (IGROV1 ovarian) was greater than 100 µM, the GI50 (SF-295 CNS) was 57.1 µM and the TGI (SF-295 CNS) was greater than 100 µM. The GI50 (SN12C renal) was 32.4 µM, the TGI (SN12C renal) was 98.2 µM and the GI50 (HCC-2998 colon) was 15.8 µM. The TGI (HCC-2998 colon) was 30 µM, the GI50 (HCT-116 colon) was 27.5 µM and the TGI (HCT-116 colon) was greater than 100 µM. The GI50 (UACC-257 melanoma) was 17.3 µM, the TGI (UACC-257 melanoma) was 53.1 µM and the GI50 (HL-60(TB) leukemia) was 12.8 µM. It also gave a TGI (HL-60(TB) leukemia) of 25.6 µM, a GI50 (OVCAR-5 ovarian) greater than 100 µM and a TGI (OVCAR-5 ovarian) greater than 100 µM. For the same compound, the GI50 (HOP-92 NSCLC) was greater than 100 µM, the TGI (HOP-92 NSCLC) was greater than 100 µM and the GI50 (SNB-19 CNS) was 46.5 µM. The TGI (SNB-19 CNS) was greater than 100 µM, the GI50 (RXF 393 renal) was 5.67 µM and the TGI (RXF 393 renal) was 17.4 µM. It also gave a GI50 (SW-620 colon) of 33.9 µM, a TGI (SW-620 colon) greater than 100 µM and a GI50 (PC-3 prostate) of 30.3 µM. For the same compound, the TGI (PC-3 prostate) was greater than 100 µM, the GI50 (NCI-H522 lung) was 12.2 µM and the TGI (NCI-H522 lung) was 24.8 µM. It also gave a GI50 (786-0 renal) of 19.8 µM, a TGI (786-0 renal) of 45.8 µM and a GI50 (MDA-MB-231 breast) of 28.8 µM. For the same compound, the TGI (MDA-MB-231 breast) was 85.1 µM, the GI50 (TK-10 renal) was greater than 100 µM and the TGI (TK-10 renal) was greater than 100 µM. The GI50 (SR leukemia) was 18 µM, the TGI (SR leukemia) was 32.1 µM and the GI50 (M14 melanoma) was 29.3 µM. The TGI (M14 melanoma) was greater than 100 µM, the GI50 (LOX IMVI melanoma) was 12.5 µM and the TGI (LOX IMVI melanoma) was 27.1 µM. For the same compound, the GI50 (NCI-H322M lung) was 25.1 µM, the TGI (NCI-H322M lung) was 74.6 µM and the GI50 (SK-OV-3 ovarian) was 82.2 µM. The TGI (SK-OV-3 ovarian) was greater than 100 µM, the GI50 (COLO 205 colon) was 20.7 µM and the TGI (COLO 205 colon) was 37.4 µM. The GI50 (ACHN renal) was 22.3 µM, the TGI (ACHN renal) was 42.6 µM and the GI50 (UO-31 renal) was 21.1 µM. It also gave a TGI (UO-31 renal) of 39.5 µM, a GI50 (MALME-3M melanoma) of 12.2 µM and a TGI (MALME-3M melanoma) of 25.9 µM. For the same compound, the GI50 (SF-539 CNS) was 19.6 µM, the TGI (SF-539 CNS) was 38.9 µM and the GI50 (NCI/ADR-RES ovarian) was 17.9 µM. The TGI (NCI/ADR-RES ovarian) was 35.3 µM, the GI50 (EKVX NSCLC) was 28.4 µM and the TGI (EKVX NSCLC) was 75.7 µM.
